Measured values as given in ChEMBL document CHEMBL5030517, “6-Halopyridylmethylidene Penicillin-Based Sulfones Efficiently Inactivate the Natural Resistance of Pseudomonas aeruginosa to β-Lactam Antibiotics” (J Med Chem, 2021).
In brackets after ≈: the same amount, converted by molar mass. Each block holds one molecule with its values, some of them ahead of it. Activity calls are given as the source filed them. The calls are words filed in the database; no cut-off is given here.

Legend:
[1] = tested on: Pseudomonas aeruginosa PAO1; assay: Inhibition of beta-lactamase activity in Pseudomonas aeruginosa PAO1 assessed as MIC for cefpodoxime antibacterial activity at 16 mg/L by broth microdilution method
[2] = tested on: Pseudomonas aeruginosa PAO1; assay: Inhibition of beta-lactamase activity in Pseudomonas aeruginosa PAO1 deltadacBdeltadacC assessed as MIC for cefpodoxime antibacterial activity at 4 mg/L by broth microdilution method
[3] = tested on: Pseudomonas aeruginosa PAO1; assay: Inhibition of beta-lactamase activity in Pseudomonas aeruginosa PAO1 23/14-053 (ST-309) assessed as MIC for cefpodoxime antibacterial activity at 16 mg/L by broth microdilution method
[4] = tested on: Pseudomonas aeruginosa PAO1; assay: Inhibition of beta-lactamase activity in Pseudomonas aeruginosa PAO1 13/09-018 (ST-175) assessed as MIC for cefpodoxime antibacterial activity at 16 mg/L by broth microdilution method
[5] = tested on: Pseudomonas aeruginosa PAO1; assay: Inhibition of beta-lactamase activity in Pseudomonas aeruginosa PAO1 deltaDdeltsDh2deltaDh3 assessed as MIC for cefpodoxime antibacterial activity at 4 mg/L by broth microdilution method
[6] = tested on: Pseudomonas aeruginosa PAO1; assay: Inhibition of beta-lactamase activity in Pseudomonas aeruginosa PAO1 assessed as MIC for cefpodoxime antibacterial activity at 4 mg/L by broth microdilution method
[7] = tested on: Pseudomonas aeruginosa PAO1; assay: Inhibition of beta-lactamase activity in Pseudomonas aeruginosa PAO1 deltaC assessed as MIC for cefpodoxime antibacterial activity at 16 mg/L by broth microdilution method
[8] = tested on: Pseudomonas aeruginosa PAO1; assay: Inhibition of beta-lactamase activity in Pseudomonas aeruginosa PAO1 6/04-224 (ST-175) assessed as MIC for cefpodoxime antibacterial activity at 4 mg/L by broth microdilution method
[9] = Inhibition beta lactamase PDC-1 in Pseudomonas aeruginosa PAO1 assessed as apparent inhibition constant using nitrocefin as substrate measured by 96 well microtitre plate; conditions: read-out: Ki(app)
[10] = tested on: Pseudomonas aeruginosa PAO1; assay: Inhibition of beta-lactamase activity in Pseudomonas aeruginosa PAO1 deltadacB assessed as MIC for cefpodoxime antibacterial activity at 4 mg/L by broth microdilution method
[11] = tested on: Pseudomonas aeruginosa PAO1; assay: Inhibition of beta-lactamase activity in Pseudomonas aeruginosa PAO1 deltaC+pUCP-(PDC-1) assessed as MIC for cefpodoxime antibacterial activity at 16 mg/L by broth microdilution method
[12] = tested on: Pseudomonas aeruginosa PAO1; assay: Inhibition of beta-lactamase activity in Pseudomonas aeruginosa PAO1 deltadacBdeltapbpGdeltadacC assessed as MIC for cefpodoxime antibacterial activity at 4 mg/L by broth microdilution method
[13] = tested on: Pseudomonas aeruginosa PAO1; assay: Inhibition of beta-lactamase activity in Pseudomonas aeruginosa PAO1 PAHUAC-14 (ST-966) assessed as MIC for cefpodoxime antibacterial activity at 16 mg/L by broth microdilution method
[14] = Inhibition beta lactamase PDC-1 in Pseudomonas aeruginosa PAO1 using nitrocefin as substrate measured by 96 well microtitre plate
[15] = tested on: Pseudomonas aeruginosa PAO1; assay: Inhibition of beta-lactamase activity in Pseudomonas aeruginosa PAO1 PAHUAC-27(ST-22) assessed as MIC for cefpodoxime antibacterial activity at 16 mg/L by broth microdilution method
[16] = tested on: Pseudomonas aeruginosa PAO1; assay: Inhibition beta lactamase PDC-1 in Pseudomonas aeruginosa PAO1 assessed as inactivation efficiency by measuring acylation rate (k2/K) using nitrocefin as substrate measured by 96 well microtitre plate
[17] = tested on: Pseudomonas aeruginosa PAO1; assay: Inhibition of beta-lactamase activity in Pseudomonas aeruginosa PAO1 deltaC+pUCP-(PDC-1) assessed as MIC for cefpodoxime antibacterial activity at 4 mg/L by broth microdilution method
[18] = tested on: Pseudomonas aeruginosa PAO1; assay: Inhibition of beta-lactamase activity in Pseudomonas aeruginosa PAO1 deltaC assessed as MIC for cefpodoxime antibacterial activity at 4 mg/L by broth microdilution method
[19] = tested on: Pseudomonas aeruginosa PAO1; assay: Inhibition of beta-lactamase activity in Pseudomonas aeruginosa PAO1 13/09-018 (ST-175) assessed as MIC for cefpodoxime antibacterial activity at 4 mg/L by broth microdilution method
[20] = tested on: Pseudomonas aeruginosa PAO1; assay: Inhibition of beta-lactamase activity in Pseudomonas aeruginosa PAO1 36/14-210 (ST-235) assessed as MIC for cefpodoxime antibacterial activity at 4 mg/L by broth microdilution method
[21] = tested on: Pseudomonas aeruginosa PAO1; assay: Inhibition beta lactamase PDC-1 in Pseudomonas aeruginosa PAO1 assessed as deacylation off-rate using nitrocefin as substrate at 30 mins measured by 96 well microtitre plate
[22] = tested on: Pseudomonas aeruginosa PAO1; assay: Inhibition of beta-lactamase activity in Pseudomonas aeruginosa PAO1 deltadacBdeltadacC assessed as MIC for cefpodoxime antibacterial activity at 16 mg/L by broth microdilution method
[23] = tested on: Pseudomonas aeruginosa PAO1; assay: Inhibition of beta-lactamase activity in Pseudomonas aeruginosa PAO1 17/14-017 (ST-235) assessed as MIC for cefpodoxime antibacterial activity at 16 mg/L by broth microdilution method
[24] = tested on: Pseudomonas aeruginosa PAO1; assay: Inhibition of beta-lactamase activity in Pseudomonas aeruginosa PAO1 deltaampD assessed as MIC for cefpodoxime antibacterial activity at 16 mg/L by broth microdilution method
[25] = tested on: Pseudomonas aeruginosa PAO1; assay: Inhibition of beta-lactamase activity in Pseudomonas aeruginosa PAO1 23/14-053 (ST-309) assessed as MIC for cefpodoxime antibacterial activity at 4 mg/L by broth microdilution method
[26] = tested on: Pseudomonas aeruginosa PAO1; assay: Inhibition of beta-lactamase activity in Pseudomonas aeruginosa PAO1 PAHUAC-27(ST-22) assessed as MIC for cefpodoxime antibacterial activity at 4 mg/L by broth microdilution method
[27] = tested on: Pseudomonas aeruginosa PAO1; assay: Inhibition of beta-lactamase activity in Pseudomonas aeruginosa PAO1 deltadacBdeltaampD assessed as MIC for cefpodoxime antibacterial activity at 16 mg/L by broth microdilution method
[28] = tested on: Pseudomonas aeruginosa PAO1; assay: Inhibition of beta-lactamase activity in Pseudomonas aeruginosa PAO1 deltaDdeltsDh2deltaDh3 assessed as MIC for cefpodoxime antibacterial activity at 16 mg/L by broth microdilution method
[29] = tested on: Pseudomonas aeruginosa PAO1; assay: Inhibition of beta-lactamase activity in Pseudomonas aeruginosa PAO1 PAHUAC-14 (ST-966) assessed as MIC for cefpodoxime antibacterial activity at 4 mg/L by broth microdilution method
[30] = tested on: Pseudomonas aeruginosa PAO1; assay: Inhibition of beta-lactamase activity in Pseudomonas aeruginosa PAO1 deltaC+pUCP-(PDC-5) assessed as MIC for cefpodoxime antibacterial activity at 4 mg/L by broth microdilution method
[31] = tested on: Pseudomonas aeruginosa PAO1; assay: Inhibition of beta-lactamase activity in Pseudomonas aeruginosa PAO1 53/22-113 (ST-244) assessed as MIC for cefpodoxime antibacterial activity at 4 mg/L by broth microdilution method
[32] = tested on: Pseudomonas aeruginosa PAO1; assay: Inhibition of beta-lactamase activity in Pseudomonas aeruginosa PAO1 deltadacBdeltaampD assessed as MIC for cefpodoxime antibacterial activity at 4 mg/L by broth microdilution method
[33] = tested on: Pseudomonas aeruginosa PAO1; assay: Inhibition of beta-lactamase activity in Pseudomonas aeruginosa PAO1 6/04-224 (ST-175) assessed as MIC for cefpodoxime antibacterial activity at 16 mg/L by broth microdilution method
[34] = tested on: Pseudomonas aeruginosa PAO1; assay: Inhibition of beta-lactamase activity in Pseudomonas aeruginosa PAO1 17/14-017 (ST-235) assessed as MIC for cefpodoxime antibacterial activity at 4 mg/L by broth microdilution method
[35] = tested on: Pseudomonas aeruginosa PAO1; assay: Inhibition of beta-lactamase activity in Pseudomonas aeruginosa PAO1 deltadacB assessed as MIC for cefpodoxime antibacterial activity at 16 mg/L by broth microdilution method
[36] = tested on: Pseudomonas aeruginosa PAO1; assay: Inhibition of beta-lactamase activity in Pseudomonas aeruginosa PAO1 36/14-210 (ST-235) assessed as MIC for cefpodoxime antibacterial activity at 16 mg/L by broth microdilution method
[37] = tested on: Pseudomonas aeruginosa PAO1; assay: Inhibition of beta-lactamase activity in Pseudomonas aeruginosa PAO1 deltaC+pUCP-(PDC-5) assessed as MIC for cefpodoxime antibacterial activity at 16 mg/L by broth microdilution method
[38] = tested on: Pseudomonas aeruginosa PAO1; assay: Inhibition of beta-lactamase activity in Pseudomonas aeruginosa PAO1 deltadacBdeltapbpGdeltadacC assessed as MIC for cefpodoxime antibacterial activity at 16 mg/L by broth microdilution method
[39] = tested on: Pseudomonas aeruginosa PAO1; assay: Inhibition of beta-lactamase activity in Pseudomonas aeruginosa PAO1 53/22-113 (ST-244) assessed as MIC for cefpodoxime antibacterial activity at 16 mg/L by broth microdilution method
[40] = tested on: Pseudomonas aeruginosa PAO1; assay: Inhibition of beta-lactamase activity in Pseudomonas aeruginosa PAO1 deltaampD assessed as MIC for cefpodoxime antibacterial activity at 4 mg/L by broth microdilution method
[41] = tested on: Pseudomonas aeruginosa PAO1; assay: Inhibition beta lactamase PDC-1 in Pseudomonas aeruginosa PAO1 assessed half life of nitrocefin substrate measured by 96 well microtitre plate assay
[42] = tested on: Pseudomonas aeruginosa PAO1; assay: Inhibition beta lactamase PDC-1 in Pseudomonas aeruginosa PAO1 assessed as maximum rate of inactivation using nitrocefin as substrate measured by 96 well microtitre plate
Pseudomonas aeruginosa = assay: Inhibition of beta lactamase PDC-1 in Pseudomonas aeruginosa PAO1 for 30 min using MALDI TOF-MS analysis
[43] = tested on: Pseudomonas aeruginosa PAO1; assay: Inhibition beta lactamase PDC-1 in Pseudomonas aeruginosa PAO1 assessed as ratio of kinact/K1 using nitrocefin as substrate measured by 96 well microtitre plate
[44] = tested on: Pseudomonas aeruginosa PAO1; assay: Inhibition of beta lactamase PDC-1 in Pseudomonas aeruginosa PAO1 assessed as reduction in enzyme activity using nitrocefin as chromogenic substrate preincubated for 10 min using 96 well microtiter plate

- MIC [1]: 1 µg/mL
- MIC [2]: 1 µg/mL
- MIC [3]: 1 µg/mL
- MIC [4]: 8 µg/mL
- MIC [5]: 2 µg/mL
- MIC [6]: 1 µg/mL
- MIC [7]: 1 µg/mL
- MIC [8]: 8 µg/mL
- Ki [9]: 990 nM
- MIC [10]: 1 µg/mL
- MIC [11]: 1 µg/mL
- MIC [12]: 1 µg/mL
- MIC [13]: 2 µg/mL
- IC50 [14]: 51 nM
- MIC [15]: 1 µg/mL
- k2/K inactivation efficiency [16]: 1370 M⁻¹ s⁻¹
- MIC [17]: 1 µg/mL
- MIC [18]: 1 µg/mL
- MIC [19]: 2 µg/mL
- MIC [20]: 8 µg/mL
- K [21]: 2.6 10^-2/min
- MIC [22]: 0.5 µg/mL
- MIC [23]: 4 µg/mL
- MIC [24]: 0.5 µg/mL
- MIC [25]: 1 µg/mL
- MIC [26]: 1 µg/mL
- MIC [27]: 1 µg/mL
- MIC [28]: 1 µg/mL
- MIC [29]: 4 µg/mL
- MIC [30]: 2 µg/mL
- MIC [31]: 4 µg/mL
- MIC [32]: 4 µg/mL
- MIC [33]: 8 µg/mL
- MIC [34]: 4 µg/mL
- MIC [35]: 0.5 µg/mL
- MIC [36]: 4 µg/mL
- MIC [37]: 1 µg/mL
- MIC [38]: 0.5 µg/mL
- MIC [39]: 4 µg/mL
- MIC [40]: 1 µg/mL
- T1/2 [41]: 0.467 h
Structure (SMILES): NC(=O)[C@@H]1CC[C@@H]2CN1C(=O)N2OS(=O)(=O)O [AVIBACTAM SODIUM]

- MIC [1]: 1 µg/mL (≈ 1.76 µM)
- MIC [2]: 1 µg/mL (≈ 1.76 µM)
- MIC [3]: 2 µg/mL (≈ 3.53 µM)
- MIC [4]: 8 µg/mL (≈ 14.1 µM)
- MIC [5]: 1 µg/mL (≈ 1.76 µM)
- MIC [6]: 1 µg/mL (≈ 1.76 µM)
- MIC [7]: 1 µg/mL (≈ 1.76 µM)
- Kinact [42]: 0.032 s⁻¹
- MIC [8]: 8 µg/mL (≈ 14.1 µM)
- Ki [9]: 14 nM
- MIC [10]: 1 µg/mL (≈ 1.76 µM)
- MIC [11]: 1 µg/mL (≈ 1.76 µM)
- MIC [12]: 1 µg/mL (≈ 1.76 µM)
- MIC [13]: 2 µg/mL (≈ 3.53 µM)
- IC50 [14]: 0.9 nM
- inhibition (Pseudomonas aeruginosa): inactive
- MIC [15]: 1 µg/mL (≈ 1.76 µM)
- k2/K inactivation efficiency [16]: 6.2 M⁻¹ s⁻¹
- MIC [17]: 1 µg/mL (≈ 1.76 µM)
- MIC [18]: 1 µg/mL (≈ 1.76 µM)
- MIC [19]: 2 µg/mL (≈ 3.53 µM)
- MIC [20]: 16 µg/mL (≈ 28.2 µM)
- K [21]: 7 10^-2/min
- MIC [22]: 0.5 µg/mL (≈ 0.881 µM)
- MIC [23]: 2 µg/mL (≈ 3.53 µM)
- MIC [24]: 1 µg/mL (≈ 1.76 µM)
- MIC [25]: 2 µg/mL (≈ 3.53 µM)
- MIC [26]: 1 µg/mL (≈ 1.76 µM)
- MIC [27]: 1 µg/mL (≈ 1.76 µM)
- MIC [28]: 1 µg/mL (≈ 1.76 µM)
- MIC [29]: 4 µg/mL (≈ 7.05 µM)
- MIC [30]: 2 µg/mL (≈ 3.53 µM)
- MIC [31]: 4 µg/mL (≈ 7.05 µM)
- MIC [32]: 4 µg/mL (≈ 7.05 µM)
- MIC [33]: 8 µg/mL (≈ 14.1 µM)
- MIC [34]: 2 µg/mL (≈ 3.53 µM)
- MIC [35]: 0.5 µg/mL (≈ 0.881 µM)
- MIC [36]: 8 µg/mL (≈ 14.1 µM)
- MIC [37]: 1 µg/mL (≈ 1.76 µM)
- K [43]: 20.9 10^5/M/s
- MIC [38]: 0.5 µg/mL (≈ 0.881 µM)
- MIC [39]: 4 µg/mL (≈ 7.05 µM)
- MIC [40]: 1 µg/mL (≈ 1.76 µM)
- T1/2 [41]: 1.75 h
- inhibition [44]: inactive
Structure (SMILES): C[C@]1(COC(=O)Cc2ccc(O)c(O)c2)[C@H](C(=O)O)N2C(=O)/C(=C/c3cc(Br)ccn3)[C@H]2S1(=O)=O
